# Reference: ChEMBL document CHEMBL1201862, “PubChem BioAssay data set” (2004)
# Activity calls are given as the source filed them.
# Columns and labels:
# [1] = test system: H9c2; experiment: cells; assay type: functional, cell-based; settings: Rattus norvegicus, H9c2, Myocardium;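 further: confirmatory concentration-response retest of ultra-high-throughput screening hits for modulation of myocardial damage; cell death induced by hydrogen peroxide oxidative stress; compound pretreatment for 60 min then peroxide exposure for 2 h; potency is for protecting the cells against peroxide damage rather than for killing them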
# [2] = target: 26S proteasome non-ATPase regulatory subunit 14 (Homo sapiens, UniProt O00487); experiment: inhibition of proteasome subunit RPN11 – biochemical, fluorescence polarization, uHTS hits, confirmation (AID 602368); assay type: functional
# Sequence of 26S proteasome non-ATPase regulatory subunit 14 (O00487 whole entry): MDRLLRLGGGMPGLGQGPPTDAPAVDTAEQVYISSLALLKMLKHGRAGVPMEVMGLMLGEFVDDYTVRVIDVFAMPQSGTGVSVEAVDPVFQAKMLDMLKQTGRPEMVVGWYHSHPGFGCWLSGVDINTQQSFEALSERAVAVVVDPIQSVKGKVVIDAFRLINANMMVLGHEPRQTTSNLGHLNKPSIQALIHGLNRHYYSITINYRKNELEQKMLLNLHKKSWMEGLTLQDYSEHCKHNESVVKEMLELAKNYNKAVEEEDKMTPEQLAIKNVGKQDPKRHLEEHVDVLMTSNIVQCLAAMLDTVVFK
# [3] = target: 72 kDa type IV collagenase (Homo sapiens, UniProt P08253); experiment: Dose Response validation of uHTS RPN11 inhibitor hits using a MMP-2 Fluorescence assay.; assay type: functional
# Sequence of 72 kDa type IV collagenase (P08253 whole entry): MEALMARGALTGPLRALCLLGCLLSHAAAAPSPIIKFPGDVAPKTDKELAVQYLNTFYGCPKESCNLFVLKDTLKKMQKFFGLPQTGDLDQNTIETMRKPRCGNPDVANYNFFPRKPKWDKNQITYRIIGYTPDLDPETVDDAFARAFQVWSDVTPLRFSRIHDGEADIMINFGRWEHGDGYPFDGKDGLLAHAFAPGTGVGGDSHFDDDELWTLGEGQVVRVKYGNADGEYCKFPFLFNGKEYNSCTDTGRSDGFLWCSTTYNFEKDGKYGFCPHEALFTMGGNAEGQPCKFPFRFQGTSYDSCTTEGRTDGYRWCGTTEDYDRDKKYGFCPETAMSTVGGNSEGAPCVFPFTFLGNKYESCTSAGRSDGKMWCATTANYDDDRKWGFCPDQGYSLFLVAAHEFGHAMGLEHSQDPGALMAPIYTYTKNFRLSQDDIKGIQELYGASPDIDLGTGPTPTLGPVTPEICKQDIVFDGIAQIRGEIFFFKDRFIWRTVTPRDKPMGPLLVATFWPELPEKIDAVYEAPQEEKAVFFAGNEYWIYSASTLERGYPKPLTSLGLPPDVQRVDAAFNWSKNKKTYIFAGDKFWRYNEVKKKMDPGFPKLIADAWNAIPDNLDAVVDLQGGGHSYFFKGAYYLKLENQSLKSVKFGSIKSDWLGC
# [4] = target: Prothrombin (Bos taurus, UniProt P00735); experiment: thrombin inhibition, dose response, biochemical, fluorescence polarization, uHTS hits (AID 602369); assay type: functional
# [5] = target: T1, High affinity choline transporter 1 (Homo sapiens, UniProt Q9GZV3); experiment: CHT inhibitors, dose response, cell-based, 5-point CRC, membrane potential dye (AID 504840); assay type: functional
# T1 sequence (Q9GZV3 whole entry): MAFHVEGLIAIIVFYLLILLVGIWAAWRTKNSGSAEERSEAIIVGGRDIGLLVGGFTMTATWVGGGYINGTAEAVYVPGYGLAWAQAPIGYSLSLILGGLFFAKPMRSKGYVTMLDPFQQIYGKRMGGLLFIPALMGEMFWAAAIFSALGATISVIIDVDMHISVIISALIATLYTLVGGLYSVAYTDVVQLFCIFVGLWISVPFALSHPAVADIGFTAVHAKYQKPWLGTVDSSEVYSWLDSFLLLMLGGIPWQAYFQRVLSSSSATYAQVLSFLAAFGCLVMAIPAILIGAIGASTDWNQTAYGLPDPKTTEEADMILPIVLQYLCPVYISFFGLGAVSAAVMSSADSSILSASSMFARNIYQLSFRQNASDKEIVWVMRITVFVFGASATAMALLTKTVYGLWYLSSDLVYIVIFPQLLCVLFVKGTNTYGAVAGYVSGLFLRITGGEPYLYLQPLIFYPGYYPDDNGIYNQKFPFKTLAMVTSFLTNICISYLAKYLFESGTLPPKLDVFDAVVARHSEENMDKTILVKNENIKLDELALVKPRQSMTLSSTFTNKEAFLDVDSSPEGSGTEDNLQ
# [6] = test system: Escherichia coli; experiment: microbe, parasite or virus in culture
# [7] = target: T2, Short transient receptor potential channel 4 (Mus musculus, UniProt Q9QUQ5); experiment: mouse TRPC4 channel activators, dose response, cell-based, HEK293 TRPC4/mu-opioid, Fluo-4 calcium (AID 434937); assay type: functional
# T2 sequence (Q9QUQ5 whole entry): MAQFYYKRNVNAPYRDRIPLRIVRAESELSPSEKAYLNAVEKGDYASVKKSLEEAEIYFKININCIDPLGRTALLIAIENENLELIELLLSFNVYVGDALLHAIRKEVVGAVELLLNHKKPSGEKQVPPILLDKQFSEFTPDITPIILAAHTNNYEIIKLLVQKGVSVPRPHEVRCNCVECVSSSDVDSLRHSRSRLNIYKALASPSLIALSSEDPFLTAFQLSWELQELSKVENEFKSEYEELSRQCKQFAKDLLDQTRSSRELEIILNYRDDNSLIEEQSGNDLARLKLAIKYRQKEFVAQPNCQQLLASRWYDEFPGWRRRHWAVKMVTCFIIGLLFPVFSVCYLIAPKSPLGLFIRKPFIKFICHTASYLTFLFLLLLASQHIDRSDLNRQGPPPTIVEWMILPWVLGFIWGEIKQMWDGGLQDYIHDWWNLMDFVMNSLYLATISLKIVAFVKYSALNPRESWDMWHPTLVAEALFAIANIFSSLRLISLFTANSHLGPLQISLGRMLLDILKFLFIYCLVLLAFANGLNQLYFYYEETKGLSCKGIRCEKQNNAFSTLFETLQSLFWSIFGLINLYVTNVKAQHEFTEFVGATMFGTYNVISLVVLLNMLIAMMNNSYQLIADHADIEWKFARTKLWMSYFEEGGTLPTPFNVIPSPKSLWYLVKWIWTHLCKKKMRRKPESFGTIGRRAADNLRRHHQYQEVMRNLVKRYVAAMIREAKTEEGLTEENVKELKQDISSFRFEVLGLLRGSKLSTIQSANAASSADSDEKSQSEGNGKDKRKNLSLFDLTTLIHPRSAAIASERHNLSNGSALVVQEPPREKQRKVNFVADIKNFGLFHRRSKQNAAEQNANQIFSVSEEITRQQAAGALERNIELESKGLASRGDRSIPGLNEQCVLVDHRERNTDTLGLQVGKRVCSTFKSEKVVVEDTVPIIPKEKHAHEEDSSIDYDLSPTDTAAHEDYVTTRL
# [8] = target: Delta-type opioid receptor (Homo sapiens, UniProt P41143); experiment: Counterscreen for agonists of heterodimerization of the mu 1 (OPRM1) and delta 1 (OPRD1) opioid receptors: Luminescence-based cell-based high throughput dose response assay to identify agonists of OPRD1 homodimerization. [Related pubchem assays (depositor defined):AID504326, AID504355, AID504692, AID504904, AID504905]; assay type: functional
# Sequence of Delta-type opioid receptor (P41143 whole entry): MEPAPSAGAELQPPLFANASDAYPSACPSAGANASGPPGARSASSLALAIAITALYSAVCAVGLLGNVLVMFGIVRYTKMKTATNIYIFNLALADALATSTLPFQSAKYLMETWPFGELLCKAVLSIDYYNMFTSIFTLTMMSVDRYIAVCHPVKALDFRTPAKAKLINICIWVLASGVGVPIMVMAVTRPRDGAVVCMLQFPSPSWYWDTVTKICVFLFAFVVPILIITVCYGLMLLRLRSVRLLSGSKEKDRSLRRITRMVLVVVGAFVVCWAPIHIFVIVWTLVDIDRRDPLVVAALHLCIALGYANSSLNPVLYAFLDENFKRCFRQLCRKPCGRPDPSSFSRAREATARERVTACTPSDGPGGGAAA
# [9] = target: Mu-type opioid receptor (Homo sapiens, UniProt P35372); experiment: Counterscreen for agonists of heterodimerization of the mu 1 (OPRM1) and delta 1 (OPRD1) opioid receptors: Luminescence-based cell-based high throughput dose response assay to identify agonists of OPRM1 homodimerization.; assay type: functional;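 further: U2OS cells expressing OPRM1 and beta-arrestin as split beta-galactosidase partners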
# Sequence of Mu-type opioid receptor (P35372 whole entry): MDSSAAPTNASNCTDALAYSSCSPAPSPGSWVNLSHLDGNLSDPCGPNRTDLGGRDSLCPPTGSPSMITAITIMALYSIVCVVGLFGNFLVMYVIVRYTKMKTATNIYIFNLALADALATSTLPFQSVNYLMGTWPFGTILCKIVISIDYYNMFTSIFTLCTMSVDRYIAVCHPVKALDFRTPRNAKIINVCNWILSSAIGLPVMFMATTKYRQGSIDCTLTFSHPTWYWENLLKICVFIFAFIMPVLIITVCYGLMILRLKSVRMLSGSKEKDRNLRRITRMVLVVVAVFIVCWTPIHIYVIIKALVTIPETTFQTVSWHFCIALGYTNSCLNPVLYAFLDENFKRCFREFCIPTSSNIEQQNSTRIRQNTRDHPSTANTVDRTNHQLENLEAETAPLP
# [10] = target: 5-hydroxytryptamine receptor 5A (Homo sapiens, UniProt P47898); experiment: Counterscreen for agonists of OPRM1-OPRD1 heterodimerization: luminescence-based cell-based high throughput dose response assay to identify agonists of 5-hydroxytryptamine (serotonin) 5A receptor (HTR5A). [Related pubchem assays (depositor defined):AID504326, AID504355, AID504692, AID504904, AID504905]; assay type: functional
# Sequence of 5-hydroxytryptamine receptor 5A (P47898 whole entry): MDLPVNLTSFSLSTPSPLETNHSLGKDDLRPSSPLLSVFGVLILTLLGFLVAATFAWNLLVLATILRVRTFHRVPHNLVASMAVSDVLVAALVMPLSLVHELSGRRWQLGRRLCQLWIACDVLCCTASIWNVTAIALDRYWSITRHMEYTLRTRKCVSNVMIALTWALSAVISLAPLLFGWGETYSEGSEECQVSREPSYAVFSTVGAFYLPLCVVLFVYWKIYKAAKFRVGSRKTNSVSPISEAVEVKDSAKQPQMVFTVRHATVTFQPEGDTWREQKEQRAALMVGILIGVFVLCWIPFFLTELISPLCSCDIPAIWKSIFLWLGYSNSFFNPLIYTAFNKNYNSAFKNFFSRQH
# [11] = Luminescence Cell-Based Dose Confirmation HTS to Identify Activators of 5'UTR Stem-Loop Driven Alpha-Synuclein mRNA Translation in H4 Neuroglioblastoma Cells. [Related pubchem assays: 1829 (Project Summary), 1814 (Primary HTS)]; assay type: functional
# [12] = Luminescence Cell-Based Dose Response HTS to Identify Activators of Luciferase Translation or Activity in H4 […] Cells. [Related pubchem assays: 1829 (Project Summary), 1814 (Primary HTS)]; assay type: functional
# [13] = cells; assay type: functional
# [14] = test system: Vero; experiment: cells; assay type: functional; settings: Chlorocebus sabaeus
# [15] = test system: HEK293; experiment: inhibitors of LMP1-driven NF-kB reporter, dose response, cell-based, HEK293, luciferase, cherry-pick (AID 588343); assay type: functional; settings: Homo sapiens
# [16] = target: Dual specificity protein kinase CLK1 (Homo sapiens, UniProt P49759); experiment: CLK1 kinase inhibitors, off-target check, dose response, selectivity assay for Dyrk1A inhibitor project, biochemical, cherry-picked samples (AID 588811)
# Sequence of Dual specificity protein kinase CLK1 (P49759 whole entry): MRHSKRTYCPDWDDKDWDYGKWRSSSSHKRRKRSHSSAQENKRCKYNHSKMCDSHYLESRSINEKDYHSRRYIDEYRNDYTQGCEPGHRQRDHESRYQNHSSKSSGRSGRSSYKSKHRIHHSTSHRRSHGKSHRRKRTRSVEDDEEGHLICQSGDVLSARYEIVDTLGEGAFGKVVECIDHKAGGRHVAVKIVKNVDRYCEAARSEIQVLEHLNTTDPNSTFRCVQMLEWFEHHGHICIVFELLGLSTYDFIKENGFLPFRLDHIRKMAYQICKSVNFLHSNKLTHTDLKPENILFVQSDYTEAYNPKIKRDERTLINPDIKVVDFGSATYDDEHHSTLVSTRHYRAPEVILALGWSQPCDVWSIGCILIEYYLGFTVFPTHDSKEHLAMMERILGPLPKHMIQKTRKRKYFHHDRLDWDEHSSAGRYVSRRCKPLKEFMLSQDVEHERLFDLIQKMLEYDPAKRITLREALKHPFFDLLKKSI
# [17] = target: T3, Bcl-2-related protein A1 (Mus musculus, UniProt Q07440); assay type: functional;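 further: confirmatory dose–response counterscreen on Bfl-1, used to check hits from a UBC13 polyubiquitin inhibitor campaign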
# T3 sequence (Q07440 whole entry): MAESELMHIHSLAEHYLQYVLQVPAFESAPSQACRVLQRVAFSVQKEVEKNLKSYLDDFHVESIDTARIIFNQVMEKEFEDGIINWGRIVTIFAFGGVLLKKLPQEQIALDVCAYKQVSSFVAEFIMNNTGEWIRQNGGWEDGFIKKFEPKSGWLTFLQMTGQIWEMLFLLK
# [18] = target: T4, Ubiquitin-conjugating enzyme E2 N (Homo sapiens, UniProt P61088); assay type: functional
# T4 sequence (P61088 whole entry): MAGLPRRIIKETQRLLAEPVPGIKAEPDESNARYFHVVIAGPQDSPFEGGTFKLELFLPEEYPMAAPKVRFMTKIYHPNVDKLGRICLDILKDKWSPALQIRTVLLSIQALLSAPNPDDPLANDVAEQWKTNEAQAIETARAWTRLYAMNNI
# [19] = target: T4, Ubiquitin-conjugating enzyme E2 N; assay type: functional; remark: listed apart in the source
# [20] = target: T5, Replicative DNA helicase DnaB (Mycobacterium tuberculosis, UniProt P9WMR3); experiment: DnaB intein splicing inhibitors, dose response, biochemical, cell-free fluorescence (AID 449749); assay type: functional
# T5 sequence (P9WMR3 whole entry): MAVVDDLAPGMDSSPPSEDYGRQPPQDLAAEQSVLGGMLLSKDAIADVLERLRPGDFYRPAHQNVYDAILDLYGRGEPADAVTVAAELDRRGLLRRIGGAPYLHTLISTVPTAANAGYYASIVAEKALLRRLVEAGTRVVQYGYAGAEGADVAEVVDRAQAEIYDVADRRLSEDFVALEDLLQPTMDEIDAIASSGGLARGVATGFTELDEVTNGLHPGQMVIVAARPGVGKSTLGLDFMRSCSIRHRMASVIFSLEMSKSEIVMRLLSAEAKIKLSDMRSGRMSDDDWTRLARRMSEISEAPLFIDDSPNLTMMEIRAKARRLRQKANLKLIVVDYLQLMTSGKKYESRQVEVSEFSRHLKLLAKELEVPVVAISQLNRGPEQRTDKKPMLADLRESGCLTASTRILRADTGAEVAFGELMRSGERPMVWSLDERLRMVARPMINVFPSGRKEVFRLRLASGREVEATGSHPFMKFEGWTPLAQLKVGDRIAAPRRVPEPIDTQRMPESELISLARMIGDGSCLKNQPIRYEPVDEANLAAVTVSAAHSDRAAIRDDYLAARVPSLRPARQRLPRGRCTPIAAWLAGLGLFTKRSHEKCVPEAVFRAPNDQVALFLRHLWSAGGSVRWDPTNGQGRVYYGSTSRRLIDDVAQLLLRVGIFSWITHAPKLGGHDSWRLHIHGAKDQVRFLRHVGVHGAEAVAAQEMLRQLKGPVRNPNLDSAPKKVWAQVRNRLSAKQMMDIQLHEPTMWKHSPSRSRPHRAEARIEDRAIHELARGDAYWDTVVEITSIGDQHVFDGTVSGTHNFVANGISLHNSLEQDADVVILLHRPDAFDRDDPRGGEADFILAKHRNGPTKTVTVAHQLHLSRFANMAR
# [21] = target: T6, Protein RecA (Mycobacterium tuberculosis, UniProt P9WHJ3); experiment: Fluorescence Cell-Free Homogeneous Dose Retest to Identify Inhibitors of RecA-Intein Splicing Activity. [Related pubchem assays (depositor defined):AID2097, AID2223, AID489010, AID492950]; assay type: functional
# T6 sequence (P9WHJ3 whole entry): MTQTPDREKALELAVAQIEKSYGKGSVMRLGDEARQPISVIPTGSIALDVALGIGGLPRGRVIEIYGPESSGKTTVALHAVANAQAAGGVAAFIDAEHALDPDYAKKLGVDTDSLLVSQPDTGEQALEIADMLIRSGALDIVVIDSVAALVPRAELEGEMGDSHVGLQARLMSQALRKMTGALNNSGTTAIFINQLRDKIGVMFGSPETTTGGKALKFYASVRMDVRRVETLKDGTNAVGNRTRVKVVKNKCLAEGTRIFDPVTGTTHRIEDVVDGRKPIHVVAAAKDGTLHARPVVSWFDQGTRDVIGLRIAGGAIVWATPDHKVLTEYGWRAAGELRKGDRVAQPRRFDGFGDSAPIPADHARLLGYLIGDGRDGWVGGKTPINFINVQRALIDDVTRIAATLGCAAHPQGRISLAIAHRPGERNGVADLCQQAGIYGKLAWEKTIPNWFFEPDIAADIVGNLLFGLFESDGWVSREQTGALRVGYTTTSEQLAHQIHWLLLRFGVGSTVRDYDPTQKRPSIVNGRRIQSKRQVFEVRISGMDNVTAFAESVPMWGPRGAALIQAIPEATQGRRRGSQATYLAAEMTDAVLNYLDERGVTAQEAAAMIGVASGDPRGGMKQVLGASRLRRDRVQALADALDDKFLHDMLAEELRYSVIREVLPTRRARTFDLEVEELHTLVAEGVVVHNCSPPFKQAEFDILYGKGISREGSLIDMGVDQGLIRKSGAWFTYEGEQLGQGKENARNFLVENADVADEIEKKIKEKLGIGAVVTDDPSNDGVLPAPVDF
# [22] = target: T2, Short transient receptor potential channel 4; experiment: mouse TRPC4 channel inhibitors, dose response, cell-based, HEK293 TRPC4/mu-opioid, Fluo-4 calcium (AID 434942); assay type: functional;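 further: potency of inhibitors blocking the TRPC4 calcium response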
smiles,measurement,setting,value
COc1ccc2o/c(=N/NC(=O)c3cccs3)c(C(N)=O)cc2c1,IC50,[1],> 79 µM (inactive)
same,IC50,[2],38.5 µM (active)
same,IC50,[3],> 100 µM (inactive)
same,IC50,[4],79.7 µM (active)
CCOC(=O)N1CCN(C(=O)C2CCCN(c3ncnc4c3nc3n4CCCCC3)C2)CC1 (stereo not given),IC50,[5],12.9 µM (active)
CN(C(=O)COC(=O)CNC(=O)C12CC3CC(CC(C3)C1)C2)C1CCS(=O)(=O)C1 (stereo not given),AC50,[6],27.2 µM (active)
CN(C)C(CN=C(S)Nc1ccccc1)c1cccnc1 (stereo not given),EC50,[7],0.149 µM (active)
same,EC50,[8],> 92.4 µM (inactive)
same,EC50,[9],> 92.4 µM (inactive)
same,EC50,[10],> 92.4 µM (inactive)
CCc1cc2c(=O)n(C(C)C(=O)OC3CCCCC3)cnc2s1 (stereo not given),EC50,[11],105 µM (active)
same,EC50,[12],67.6 µM (active)
same,IC50,[13],17.9 µM (active)
same,AC50,[6],54.4 µM (active)
Fc1ccc(N=C(S)Nc2ccc(F)c(Cl)c2)cc1Cl,IC50,[5],7.94 µM (active)
O=C1N(c2ccccc2C(F)(F)F)O[C@]1(c1ccccc1)C1CCCCC1,CC50,[14],> 25 µM (active)
c1csc(CNc2ncnc3ccc(-c4ccoc4)cc23)c1,AC50,[15],19 µM (active)
same,AC50,[16],0.00979 µM (active)
N=c1n(CC(=O)c2cccc([N+](=O)[O-])c2)c2ccccc2n1Cc1ccccc1,CC50,[14],11.2 µM (active)
O=C(CSCc1ccc([N+](=O)[O-])cc1)N/N=C/c1cccnc1,IC50,[17],> 20 µM (inactive)
same,IC50,[18],8.26 µM (active)
same,IC50,[19],10.9 µM (active)
same,AC50,[20],> 380 µM (inactive)
same,EC50,[21],> 380 µM (inactive)
COc1cccc(CC2(CO)CCCN(Cc3ccccc3-c3ccco3)C2)c1 (stereo not given),EC50,[22],1.19 µM (active)
same,EC50,[7],2.66 µM (active)
same,EC50,[8],> 92.5 µM (inactive)
same,EC50,[9],> 92.5 µM (inactive)
same,EC50,[10],> 92.5 µM (inactive)
COc1ccc(C(CNC(=O)/C=C/c2c(Cl)nc3ccccn23)N(C)C)cc1 (stereo not given),EC50,[7],0.473 µM (active)
same,EC50,[8],> 92.5 µM (inactive)
same,EC50,[9],> 92.5 µM (inactive)
same,EC50,[10],> 92.5 µM (inactive)
O=C(Nc1ccccc1Oc1ccccc1)c1ccc(Br)o1,AC50,[6],> 380 µM (inactive)
Cc1noc(CN(C)c2ncnc3ccc(-c4ccc5c(c4)OCO5)cc23)n1,AC50,[16],< 0.00195 µM (active)
